In PMC12040169 (PLOS Biology, 2025):

Test: in vitro
Settings: human, hela cells, % viability

Row | Structure (SMILES) | viability at 28.5 h, 10 µM [%]
1 | Cc1nc2ccc(Br)cc2c(=O)n1Cc1cccs1 [CBK085890] | 89.7
2 | N=C1NC(=O)/C(=C/c2cccc(OCCOc3ccc(C4CCCCC4)cc3)c2)S1 [CBK263956] | 87.6
3 | COc1cccc(NC(=O)CSc2ccc(Cl)cc2)c1 [CBK263811] | 85.6
4 | Cc1ccccc1NC(=O)COc1ccc(S(=O)(=O)N2CCCC2)cc1Cl [CBK268938] | 95.2
5 | CC(=O)N(C)c1nc(-c2cccc(N(C)C)c2)ccc1C(=O)NC1CCS(=O)(=O)C1 (stereo not shown) [CBK076590] | 103
6 | COc1cnc(-c2ccc(Cl)cc2Cl)c(NC(=O)Cc2ccccc2)n1 [CBK145398] | 92.8
7 | COc1ccc(-c2ccc3c(c2)OC2(CCN(C(=O)c4cc(OC)c(C)c(OC)c4)CC2)CC3=O)cn1 [CBK169424] | 107
8 | CCN(CC)C(=O)c1ccc(NS(=O)(=O)Cc2ccccc2[N+](=O)[O-])cc1 [CBK034396] | 97.1
9 | CN1CCCC1CNCc1cn(-c2ccccc2)nc1-c1cccnc1 (stereo not shown) [CBK304490] | 118
10 | COc1ccc(Cc2nc(C(C)(C)C)cs2)cc1 [CBK021497B] | 85
11 | O=C(O)c1csc(S(=O)(=O)Nc2ccccc2C(=O)Nc2ccc3c(c2)OCO3)c1 [CBK295655] | 102
12 | COCCn1c(SC2CCN(C)C2=O)nc2ccccc21 (stereo not shown) [CBK305131] | 97.9
13 | CCn1c(C)nnc1SCCNc1cc(C(C)C)nc2ccnn12 [CBK306829] | 81.4
14 | O=C(CN1CCOCC1)N1CCN(CCc2ccccc2)CC1 [CBK200215] | 91.4
15 | COc1cncc(-c2cncc(N[C@H](CO)C(C)C)n2)c1 [CBK065329] | 106
16 | CC(=O)C1=C(O)C(=O)N(CCC(=O)O)C1c1ccccc1 (stereo not shown) [CBK286763] | 84.3
17 | Cc1nc(-c2cccnc2)[nH]c(=O)c1CC(=O)N(C)C1CCCC1 [CBK304907] | 83
18 | CN(C)CC1CCCN(C(=O)[C@@H]2C[C@@H]3C=C[C@H]2C3)C1 (stereo partly shown) [CBK282063] | 98
19 | CSCC(CSC)OC(=O)Nc1ccc(Cl)cc1 [CBK086154] | 93.9
20 | COc1ccc(CCNc2ccccc2[N+](=O)[O-])cc1OC [CBK074819] | 104
21 | OCc1ccc(-c2nccnc2NCCc2c[nH]c3ccccc23)cc1 [CBK038004] | 98.8
22 | Cc1nc(CN2CCC3(CC2)CN(C(=O)C(C)C)c2ccccc23)cs1 [CBK131476] | 108

Row | Structure (SMILES) | viability at 28.5 h, 10 µM [%]
23 | O=C(O)c1cccc(C(=O)Nc2cccc(NC(=O)C3CCCO3)c2)c1 (stereo not shown) [CBK268566] | 108
24 | O=C(O)CC(C(=O)O)N1C(=O)/C(=C2/C(=O)Nc3ccc(Br)cc32)SC1=S (stereo not shown) [CBK261791] | 104
25 | O=C1CN(C(=O)NCc2ccc(F)cc2)CCN1 [CBK155869] | 88.2
26 | COc1ccccc1-n1c(C)c(C(C)=O)c2cc(O)ccc21 [CBK115320] | 86.3
27 | O=C(NC(c1ccc(F)cc1)c1cnccn1)C1CCN(C(=O)c2ccco2)CC1 (stereo not shown) [CBK059956] | 94.3
28 | CCOC(=O)c1c(NC(=O)CSc2nnc3ccccn23)sc2c1CCCCC2 [CBK265685] | 101
29 | COc1cc(C(=O)N2CCC3(CC2)CC(=O)c2cc(C)ccc2O3)cc(-c2ccc(OC)c(OC)c2)c1 [CBK168271] | 88.9
30 | CC(C)(C)OC(=O)N1CCN(CCC(=O)O)CC1 [CBK287143] | 101
31 | O=C(CCC1CCCC1)n1ccn(-c2ccc3c(c2)OCO3)c1=O [CBK106631] | 101
32 | CC(=O)Nc1ccc(Nc2cc(-c3ccsc3)ncn2)cc1 [CBK090717] | 96.8
33 | OCCN1CCN(CC(O)COCc2ccccc2)CC1 (stereo not shown) [CBK278262C] | 90.6
34 | O=[N+]([O-])c1ccn(C2CC(O)C(CO)O2)c1 (stereo not shown) [CBK201229] | 83.7
35 | Cc1cc(NCC2CCCO2)n2ncc(-c3ccccc3)c2n1 (stereo not shown) [CBK304530] | 83.8
36 | CCN1CCN(CC(=O)N/N=C/c2ccc(F)cc2)CC1 [CBK261615] | 108
37 | O=C(NCc1ccccc1)c1ccc(NCc2ccccc2)c([N+](=O)[O-])c1 [CBK074547] | 92.9
38 | COC(=O)c1sccc1NS(=O)(=O)c1ccc(C(F)(F)F)cc1[N+](=O)[O-] [CBK004510] | 92.9
39 | Cc1c(Cl)cc(C(C)C)c(O)c1CNC(=O)CSc1nnc(-c2cccs2)n1C [CBK267416] | 94.6
40 | N#C/C(=C\c1ccc(-c2cc(Cl)ccc2Cl)o1)C(=O)Nc1cccc2cccnc12 [CBK263082] | 110
41 | O=C(c1cccnc1)C1CCN(C(=O)Cc2cccc(F)c2)CC1 [CBK283506] | 101
42 | O=C(O)CCCNS(=O)(=O)/C=C/c1ccccc1 [CBK287170] | 85.1
43 | O=C(O)c1cccc(CSc2nnc(-c3ccccc3)c(-c3ccccc3)n2)c1 [CBK269165] | 97.6
44 | Cn1ccnc1C(=O)N1C[C@H]2CCc3c(n[nH]c3C(F)(F)F)[C@H]2C1 [CBK283441] | 101

Row | Structure (SMILES) | viability at 28.5 h, 10 µM [%]
45 | CCOC(=O)NC(=O)CSc1nc2ccccc2[nH]1 [CBK267443] | 91.9
46 | COc1ccc(N2CCN(c3nc(NCCO)nc(N4CCOCC4)n3)CC2)cc1 [CBK265413] | 99.3
47 | Cc1ccc(C(=O)O/N=C(\N)c2ccccn2)cc1 [CBK263265] | 90.9
48 | NC(=O)c1cccc(-c2nc(-c3ccc(F)cc3F)cnc2N)c1 [CBK064109] | 86.5
49 | CN(C(=O)C1CCN(C(=O)c2ccoc2)CC1)C(c1ccc(F)cc1)c1ccccn1 (stereo not shown) [CBK060206] | 91.5
50 | OCc1cccc(-c2cncc(NC3CCC(O)CC3)n2)c1 (stereo not shown) [CBK065448] | 102
51 | CCOc1ccccc1NC(C)CC(=O)O (stereo not shown) [CBK058826] | 82.8
52 | Cc1ccc(S(N)(=O)=O)cc1C(=O)Nc1nncs1 [CBK050456] | 105
53 | O=C(NC1CCCCC1)[C@H]1CN2CCC1C[C@@H]2Cn1cc(CO)nn1 (stereo partly shown) [CBK289086] | 102
54 | CCOc1cccc(CNn2cnnc2)c1OCc1ccccc1 [CBK265824] | 81.2
55 | Cc1ccc(-c2c[nH]c([C@@H]3COCCN3Cc3c[nH]cn3)n2)cc1 [CBK289315] | 94.8
56 | COc1ccc2c(c1)C1(CC(=O)N(CCC3CCCCC3)C1=O)C(=O)N2C (stereo not shown) [CBK075147] | 120
57 | CCCNC(=O)c1ccc(C)c(NC(=O)N[C@@H]2C[C@@H](CO)N(C)C2)c1 [CBK307451] | 92.9
58 | COc1ccc2[nH]c3c(c2c1)CCNC31CCN(Cc2cc(F)cc(F)c2)C1 (stereo not shown) [CBK039368] | 81.9
59 | O=C(NCCn1nc(-c2cccs2)ccc1=O)c1cccs1 [CBK283836] | 77
60 | CN(CCCNC(=O)/C=N/O)CCCC(C)(C)C [CBK288480] | 110
61 | O=S(=O)(c1ccc2ccccc2c1)N1CCN(C2CCCCCCC2)CC1 [CBK264186G] | 98.3
62 | COc1cccc(/C=N/NC(=O)CCN2CCN(C)CC2)c1O [CBK261499] | 91.3
63 | C[C@H](NC(=O)OC1CC[C@@]2(c3ccccc3)CCN(C)[C@H]2C1)c1cccc2ccccc12 (stereo partly shown) [CBK003664] | 111
64 | C=CCNC(=O)C[C@@H]1CCN(C(=O)c2cccnc2)C[C@@H]1CC [CBK289142] | 92.3
65 | Nc1ncnc2c1ncn2C1OC(C(=O)O)C(O)C1O (stereo not shown) [CBK262922] | 99.9
66 | CC(C)[C@@H](CO)Nc1cc(Cl)nc2ccnn12 [CBK037242] | 96.2

Row | Structure (SMILES) | viability at 28.5 h, 10 µM [%]
67 | COc1ccc2c(c1Br)C=C(n1ccnc1)CC2 [CBK017808] | 76.9
68 | COC(=O)C1=C(C(=O)OC)SC(=C2C(=S)C(C)(C)N(C(=O)c3ccc4ccccc4c3)c3cc(C)ccc32)S1 [CBK261622] | 116
69 | Cn1nccc1NS(=O)(=O)c1ccc(-c2cc(C(F)(F)F)on2)s1 [CBK062087] | 97.4
70 | CC(C)CCNC(=O)CC(=O)Nc1ccc(C(=O)O)cc1 [CBK286721] | 85.5
71 | COc1ccc(-c2ccc(SCC(=O)Nc3cc(C)on3)nn2)cc1 [CBK287634] | 88.7
72 | CCOC(=O)c1ccc(N/C=C(\C#N)c2nc(-c3cc4ccccc4oc3=O)cs2)cc1 [CBK262356] | 83.1
73 | Cc1ccc2[nH]c(=O)c(CNc3ccc4[nH]ncc4c3)cc2c1 [CBK281936] | 73
74 | C=CCN1C(=O)C2(CC(=O)N(C)C2=O)c2ccccc21 (stereo not shown) [CBK075137] | 93.6
75 | Cc1ccc(C(=O)COC(=O)c2cc(O)nc3ccccc23)cc1[N+](=O)[O-] [CBK264085] | 98.8
76 | COc1ccc(N)cc1OCCn1ccnc(N2CCNCC2)c1=O [CBK024211C] | 98.3
77 | O=C(Nc1cccc2c(NC(=O)C3CC3c3ccccc3)cccc12)C1CC1c1ccccc1 (stereo not shown) [CBK260911] | 99.1
78 | O=C(c1cscn1)N1CCN(CCc2ccccc2)CC1 [CBK200230] | 106
79 | CCN1CCN(c2ccc(NC(=O)c3cccnc3)cc2Cl)CC1 [CBK266629C] | 97.9
80 | CCOc1ccc(C(=O)NC(=S)Nc2ncccc2C)cc1[N+](=O)[O-] [CBK264128] | 98.3
81 | CC(Cn1cccn1)NCc1cn(C)c2cc(F)ccc12 (stereo not shown) [CBK282220] | 88.4
82 | CN1CCC2(CC1)CN(C(=O)C1CC1)Cc1ccccc1O2 [CBK284967] | 102
83 | O=[N+]([O-])c1cc(S(=O)(=O)Nc2cccc(-c3cnco3)c2)ccc1Cl [CBK067125] | 95.7
84 | O=C1NCC2(CCCN(Cc3ccc(F)cc3)C2)Oc2ccccc21 (stereo not shown) [CBK284857] | 92.7
85 | O=C1CC(N2CCN(c3ccccn3)CC2)C(=O)N1CCc1ccccc1 (stereo not shown) [CBK262282] | 77.9
86 | CN(C)CCn1c(=O)[nH]c2ncc(-c3cc(C(F)(F)F)cc(C(F)(F)F)c3)nc21 [CBK065028] | 112
87 | c1ccc(CN2CC[C@H](Nc3nccnc3-c3cccnc3)C2)cc1 [CBK036978] | 104

Same assay, conditions: human, hela cells, % viability, bulk resorufin, single well

Row | Structure (SMILES) | viability at 28.5 h, 10 µM [%]
88 | CC(=O)N1CCC2(CC1)OCc1cc(-c3cnc4ccccc4c3)ccc1O2 [CBK060976] | 93.8
